Laboratory results as given in patent publication US8420657B2 (Novartis AG, priority 2008, dated 2013).
pIC50: −log10 of the molar value.

Legend:
[1] = tested on: JAK1/JAK2-dependent nuclear translocation of STAT1-GFP in HT1080 fibrosarcoma cells; test: STAT1 nuclear translocation assay (Cellomics), IFN-γ stimulated HT1080 STAT1-GFP cells; assay type: cell-based; settings: Homo sapiens, HT-1080, STAT1 translocation pathway
Method in brief: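 HT1080 cells stably expressing STAT1-GFP, pre-treated 30 min with compound (10 μM–0.003 μM, 0.1% DMSO), then stimulated 2 h with 100 ng/ml IFN-γ, fixed and Hoechst-stained. Nuclear-cytoplasmic GFP differential imaged over ≥1000 cells/well, normalised to unstimulated and DMSO-stimulated wells for IC50.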

GST-JAK2(808-1132) = target: T1, GST-JAK2(808-1132) (Homo sapiens, UniProt O60674); test: JAK2 kinase assay (Caliper mobility shift, LabChip 3000); assay type: biochemical
T1 construct: GST-JAK2(808-1132); purchased Invitrogen (Carlsbad, USA) #4288
T1 sequence (O60674 808-1132): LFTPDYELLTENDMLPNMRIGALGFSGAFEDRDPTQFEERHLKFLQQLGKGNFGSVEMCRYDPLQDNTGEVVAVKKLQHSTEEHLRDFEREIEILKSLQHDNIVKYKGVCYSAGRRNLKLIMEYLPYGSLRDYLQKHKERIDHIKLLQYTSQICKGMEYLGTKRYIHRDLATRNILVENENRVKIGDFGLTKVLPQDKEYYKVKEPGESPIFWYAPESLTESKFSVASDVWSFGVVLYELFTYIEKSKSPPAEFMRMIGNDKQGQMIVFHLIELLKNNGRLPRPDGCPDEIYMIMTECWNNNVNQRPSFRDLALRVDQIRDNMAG
Method in brief: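 Recombinant GST-JAK2(808-1132) kinase domain with FITC-labelled JAK3tide peptide substrate and ATP; 60 min at 30 °C, EDTA stop. Substrate/product ratio read by microfluidic mobility shift; compounds at 8 final concentrations, 10 to 0.003 μM.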

SMILES: Cc1cc(Nc2ncc3ccn(-c4ccc(C5(C(=O)N6CCN(C)CC6)CC5)cc4)c3n2)ccc1F [Example 122, (1-{4-[2-(4-Fluoro-3-methyl-phenylamino)-pyrrolo[2,3-d]pyrimidin-7-yl]-phenyl}-cyclopropyl)-(4-methyl-piperazin-1-yl)-methanone]
- pIC50 [1]: 6.78
- pIC50 (GST-JAK2(808-1132)): 8.48

SMILES: Cc1cc(Nc2ncc3ccn(-c4ccc(CN5CCOCC5)cc4)c3n2)ccc1F [Example 123, (4-Fluoro-3-methyl-phenyl)-[7-(4-morpholin-4-ylmethyl-phenyl)-7H-pyrrolo[2,3-d]pyrimidin-2-yl]-amine]
- pIC50 [1]: 6.10
- pIC50 (GST-JAK2(808-1132)): 7.55

SMILES: CCN1CCN(Cc2ccc(-n3ccc4cnc(Nc5ccc(F)c(C)c5)nc43)cc2F)CC1 [Example 124, {7-[4-(4-Ethyl-piperazin-1-ylmethyl)-3-fluoro-phenyl]-7H-pyrrolo[2,3-d]pyrimidin-2-yl}-(4-fluoro-3-methyl-phenyl)-amine]
- pIC50 [1]: 5.67
- pIC50 (GST-JAK2(808-1132)): 7.07

SMILES: Cc1cc(Nc2ncc3ccn(-c4ccc(CN5CCS(=O)(=O)CC5)c(F)c4)c3n2)ccc1F [Example 125, {7-[4-(1,1-Dioxido-thiomorpholin-4-ylmethyl)-3-fluoro-phenyl]-7H-pyrrolo[2,3-d]pyrimidin-2-yl}-(4-fluoro-3-methyl-phenyl)-amine]
- pIC50 [1]: 6.92
- pIC50 (GST-JAK2(808-1132)): > 8.52

SMILES: CC(C)Oc1ccc(Nc2ncc3ccn(-c4cc(F)c(CN5CCOCC5)c(F)c4)c3n2)cc1 [Example 126, [7-(3,5-Difluoro-4-morpholin-4-ylmethyl-phenyl)-7H-pyrrolo[2,3-d]pyrimidin-2-yl]-(4-isopropoxy-phenyl)-amine]
- pIC50 [1]: 5.79
- pIC50 (GST-JAK2(808-1132)): 7.96

SMILES: Cc1cc(Nc2ncc3ccn(-c4ccc(CN5CCOCC5)c(F)c4)c3n2)ccc1F [Example 127, (4-Fluoro-3-methyl-phenyl)-[7-(3-fluoro-4-morpholin-4-ylmethyl-phenyl)-7H-pyrrolo[2,3-d]pyrimidin-2-yl]-amine]
- pIC50 [1]: 6.14
- pIC50 (GST-JAK2(808-1132)): 7.98

SMILES: Cc1ccc(Nc2ncc3ccn(-c4cc(F)c(CN5CCOCC5)c(F)c4)c3n2)cc1Cl [Example 128, (3-Chloro-4-methyl-phenyl)-[7-(3,5-difluoro-4-morpholin-4-ylmethyl-phenyl)-7H-pyrrolo[2,3-d]pyrimidin-2-yl]-amine]
- pIC50 [1]: 5.43
- pIC50 (GST-JAK2(808-1132)): 6.92

SMILES: Cc1ccc(Nc2ncc3ccn(-c4cc(F)c(CN5CCS(=O)(=O)CC5)c(F)c4)c3n2)cc1Cl [Example 129, (3-Chloro-4-methyl-phenyl)-{7-[4-(1,1-dioxido-thiomorpholin-4-ylmethyl)-3,5-difluoro-phenyl]-7H-pyrrolo[2,3-d]pyrimidin-2-yl}-amine]
- pIC50 [1]: 6.33
- pIC50 (GST-JAK2(808-1132)): 8.05

SMILES: CCN1CCN(Cc2c(F)cc(-n3ccc4cnc(Nc5ccc(C)c(Cl)c5)nc43)cc2F)CC1 [Example 130, (3-Chloro-4-methyl-phenyl)-{7-[4-(4-ethyl-piperazin-1-ylmethyl)-3,5-difluoro-phenyl]-7H-pyrrolo[2,3-d]pyrimidin-2-yl}-amine]
- pIC50 [1]: 5.08
- pIC50 (GST-JAK2(808-1132)): 6.94

SMILES: Cc1cc(Nc2ncc3ccn(-c4cc(F)c(CN5CCOCC5)c(F)c4)c3n2)ccc1F [Example 131, [7-(3,5-Difluoro-4-morpholin-4-ylmethyl-phenyl)-7H-pyrrolo[2,3-d]pyrimidin-2-yl]-(4-fluoro-3-methyl-phenyl)-amine]
- pIC50 [1]: 5.82
- pIC50 (GST-JAK2(808-1132)): 7.80

SMILES: CCN1CCN(Cc2c(F)cc(-n3ccc4cnc(Nc5ccc(F)c(C)c5)nc43)cc2F)CC1 [Example 132, {7-[4-(4-Ethyl-piperazin-1-ylmethyl)-3,5-difluoro-phenyl]-7H-pyrrolo[2,3-d]pyrimidin-2-yl}-(4-fluoro-3-methyl-phenyl)-amine]
- pIC50 [1]: 5.20
- pIC50 (GST-JAK2(808-1132)): 7.39

SMILES: CC(=O)N1CCN(Cc2c(F)cc(-n3ccc4cnc(Nc5ccc(F)c(C)c5)nc43)cc2F)CC1 [Example 133, 1-(4-{2,6-Difluoro-4-[2-(4-fluoro-3-methyl-phenylamino)-pyrrolo[2,3-d]pyrimidin-7-yl]-benzyl}-piperazin-1-yl)-ethanone]
- pIC50 [1]: 6.24
- pIC50 (GST-JAK2(808-1132)): 8.15

SMILES: CCN1CCN(Cc2c(F)cc(-n3ccc4cnc(Nc5ccc(F)c(C)c5)nc43)cc2F)CC1=O [Example 134, 4-{2,6-Difluoro-4-[2-(4-fluoro-3-methyl-phenylamino)-pyrrolo[2,3-d]pyrimidin-7-yl]-benzyl}-1-ethyl-piperazin-2-one]
- pIC50 [1]: 5.73
- pIC50 (GST-JAK2(808-1132)): 7.69

SMILES: COCc1ccc(Nc2ncc3ccn(-c4cc(F)c(CN5CCOCC5)c(F)c4)c3n2)cc1 [Example 135, [7-(3,5-Difluoro-4-morpholin-4-ylmethyl-phenyl)-7H-pyrrolo[2,3-d]pyrimidin-2-yl]-(4-methoxymethyl-phenyl)-amine]
- pIC50 [1]: 6.38
- pIC50 (GST-JAK2(808-1132)): 8.31

SMILES: N#Cc1ccc(Nc2ncc3ccn(-c4cc(F)c(CN5CCOCC5)c(F)c4)c3n2)cc1 [Example 136, 4-[7-(3,5-Difluoro-4-morpholin-4-ylmethyl-phenyl)-7H-pyrrolo[2,3-d]pyrimidin-2-ylamino]-benzonitrile]
- pIC50 [1]: 6.11
- pIC50 (GST-JAK2(808-1132)): 7.96

SMILES: Cc1cc(Nc2ncc3ccn(-c4cc(F)c(CN5CCS(=O)(=O)CC5)c(F)c4)c3n2)ccc1F [Example 137, {7-[4-(1,1-Dioxido-thiomorpholin-4-ylmethyl)-3,5-difluoro-phenyl]-7H-pyrrolo[2,3-d]pyrimidin-2-yl}-(4-fluoro-3-methyl-phenyl)-amin]
- pIC50 [1]: 6.82
- pIC50 (GST-JAK2(808-1132)): 8.48

SMILES: O=C(c1ccc(Nc2ncc3ccn(-c4cc(F)c(CN5CCOCC5)c(F)c4)c3n2)cc1)N1CCOCC1 [Example 138, {4-[7-(3,5-Difluoro-4-morpholin-4-ylmethyl-phenyl)-7H-pyrrolo[2,3-d]pyrimidin-2-ylamino]-phenyl}-morpholin-4-yl-methanone]
- pIC50 [1]: 6.78
- pIC50 (GST-JAK2(808-1132)): > 8.52

SMILES: Cc1ccc(Nc2ncc3ccn(-c4ccc(C[S+](C)[O-])cc4)c3n2)cc1 (stereo not drawn) [Example 139, [7-(4-Methanesulfinylmethyl-phenyl)-7H-pyrrolo[2,3-d]pyrimidin-2-yl]-p-tolyl-amine]
- pIC50 [1]: 6.20
- pIC50 (GST-JAK2(808-1132)): 7.96

SMILES: Cc1ccc(Nc2ncc3ccn(-c4ccc(CS(C)(=O)=O)cc4)c3n2)cc1 [Example 140, [7-(4-Methanesulfonylmethyl-phenyl)-7H-pyrrolo[2,3-d]pyrimidin-2-yl]-p-tolyl-amine]
- pIC50 [1]: 6.51
- pIC50 (GST-JAK2(808-1132)): 8.35

SMILES: Cc1ccc(Nc2ncc3ccn(-c4ccc(CC(=O)N5CCOCC5)cc4)c3n2)cc1 [Example 141, 1-Morpholin-4-yl-2-[4-(2-p-tolylamino-pyrrolo[2,3-d]pyrimidin-7-yl)-phenyl]-ethanone]
- pIC50 [1]: 6.89
- pIC50 (GST-JAK2(808-1132)): > 8.52

SMILES: COc1cc(Nc2ncc3ccn(-c4ccc(CC(=O)N5CCOCC5)cc4)c3n2)ccc1F [Example 142, 2-{4-[2-(4-Fluoro-3-methoxy-phenylamino)-pyrrolo[2,3-d]pyrimidin-7-yl]-phenyl}-1-morpholin-4-yl-ethanone]
- pIC50 [1]: 7.00
- pIC50 (GST-JAK2(808-1132)): > 8.52

SMILES: O=C(Cc1ccc(-n2ccc3cnc(Nc4ccccc4)nc32)cc1)N1CCOCC1 [Example 143, 1-Morpholin-4-yl-2-[4-(2-phenylamino-pyrrolo[2,3-d]pyrimidin-7-yl)-phenyl]-ethanone]
- pIC50 [1]: 6.71
- pIC50 (GST-JAK2(808-1132)): > 8.52

SMILES: O=C(Cc1ccc(-n2ccc3cnc(Nc4ccc(C(F)(F)F)cc4)nc32)cc1)N1CCOCC1 [Example 144, 1-Morpholin-4-yl-2-{4-[2-(4-trifluoromethyl-phenylamino)-pyrrolo[2,3-d]pyrimidin-7-yl]-phenyl}-ethanone]
- pIC50 [1]: 6.32
- pIC50 (GST-JAK2(808-1132)): 8.33

SMILES: CN1CCN(C(=O)Cc2ccc(-n3ccc4cnc(Nc5ccc(C(F)(F)F)cc5)nc43)cc2)CC1 [Example 145, 1-(4-Methyl-piperazin-1-yl)-2-{4-[2-(4-trifluoromethyl-phenylamino)-pyrrolo[2,3-d]pyrimidin-7-yl]-phenyl}-ethanone]
- pIC50 [1]: 6.44
- pIC50 (GST-JAK2(808-1132)): 8.15

SMILES: Cc1ccc(Nc2ncc3ccn(-c4ccc(CN5CCOCC5)cc4)c3n2)cc1 [Example 146, [7-(4-Morpholin-4-ylmethyl-phenyl)-7H-pyrrolo[2 3-d]pyrimidin-2-yl]-p-tolyl-amine]
- pIC50 [1]: 5.60
- pIC50 (GST-JAK2(808-1132)): 7.52

SMILES: CCOc1ccc(Nc2ncc3ccn(-c4ccc(CN5CCOCC5)cc4)c3n2)cc1OCC [Example 147, (3,4-Diethoxy-phenyl)-[7-(4-morpholin-4-ylmethyl-phenyl)-7H-pyrrolo[2,3-d]pyrimidin-2-yl]-amine]
- pIC50 [1]: 7.48
- pIC50 (GST-JAK2(808-1132)): > 8.52

SMILES: Cc1ccc(Nc2ncc3ccn(-c4ccc(CC(=O)N5CCN(C)CC5)cc4)c3n2)cc1C [Example 148, 2-{4-[2-(3,4-Dimethyl-phenylamino)-pyrrolo[2,3-d]pyrimidin-7-yl]-phenyl}-1-(4-methyl-piperazin-1-yl)-ethanone]
- pIC50 [1]: 7.33
- pIC50 (GST-JAK2(808-1132)): 8.10

SMILES: Cc1ccc(Nc2ncc3ccn(-c4ccc(CC(=O)N5CCN(C)CC5)cc4)c3n2)cc1 [Example 149, 1-(4-Methyl-piperazin-1-yl)-2-[4-(2-p-tolylamino-pyrrolo[2,3-d]pyrimidin-7-yl)-phenyl]-ethanone]
- pIC50 [1]: 5.82
- pIC50 (GST-JAK2(808-1132)): 6.89

SMILES: COc1cc(Nc2ncc3ccn(-c4ccc(CC(=O)N5CCN(C)CC5)cc4)c3n2)ccc1F [Example 150, 2-{4-[2-(4-Fluoro-3-methoxy-phenylamino)-pyrrolo[2,3-d]pyrimidin-7-yl]-phenyl}-1-(4-methyl-piperazin-1-yl)-ethanone]
- pIC50 [1]: 7.19
- pIC50 (GST-JAK2(808-1132)): 8.35

SMILES: Cc1ccc(Nc2ncc3ccn(-c4ccc(C(=O)N5CCOCC5)c(F)c4)c3n2)cc1C [Example 152, {4-[2-(3,4-Dimethyl-phenylamino)-pyrrolo[2,3-d]pyrimidin-7-yl]-2-fluoro-phenyl}-morpholin-4-yl-methanone]
- pIC50 [1]: 6.77
- pIC50 (GST-JAK2(808-1132)): 8.46
